Active and inactive are the calls of the source. The rule behind the calls is not given here.
Key:
SU.86.86 [1] = test: Induction of DNA damage in human SU8686 cells assessed as increase in gammaH2AX phosphorylation at […] at cytotoxic IC50 incubated for 24 hrs by fluorometry method; assay type: functional
SU.86.86 [2] = test: Induction of DNA damage in human SU8686 cells assessed as increase in gammaH2AX phosphorylation at […] at cytotoxic IC50 in presence of 0.3 uM doxorubicin by fluorometry method; assay type: functional
SU.86.86 [3] = test: Induction of DNA damage in human SU8686 cells assessed as increase gammaH2AX protein level at IC50 for 24 hrs in presence of 5 uM cisplatin by western blot analysis; assay type: functional, cell-based
SU.86.86 [4] = test: Induction of DNA damage in human SU8686 cells assessed as tail DNA formation at IC50 by alkaline Comet assay; assay type: functional, cell-based
SU.86.86 [5] = test: Induction of DNA damage in human SU8686 cells assessed as increase in gammaH2AX nuclear foci under basal condition at IC50 by fluorometry method; assay type: functional, cell-based
SU.86.86 [6] = test: Induction of DNA damage in human SU8686 cells assessed as increase gammaH2AX protein level at IC50 for 24 hrs in presence of 0.3 uM doxorubicin by western blot analysis; assay type: functional, cell-based
SU.86.86 [7] = test: Induction of DNA damage in human SU8686 cells assessed as increase in gammaH2AX phosphorylation at […] at cytotoxic IC50 in presence of 5 uM cisplatin by fluorometry method; assay type: functional
BXPC-3 = test: Cytotoxicity against human BxPC3 cells assessed as cell viability after 72 hrs incubated with resazurin sodium salt by Alamar blue assay; assay type: functional
SU.86.86 [8] = test: Cytotoxicity against human SU8686 cells assessed as cell viability after 72 hrs incubated with resazurin sodium salt by Alamar blue assay; assay type: functional
SU.86.86 [9] = test: Induction of DNA damage in human SU8686 cells assessed as tail DNA formation at IC50 in presence of 5 uM cisplatin by alkaline Comet assay; assay type: functional, cell-based

**Q.** For `CC(C)=CCc1cc(C(=O)/C=C/c2ccc(O)cc2)c(O)cc1O` [BROUSSOCHALCONE B], which Activity (SU.86.86 [1]) is on record?
**A.** >30%

**Q.** What about the Activity (SU.86.86 [2]) of the same compound?
**A.** >20%

**Q.** For `CCCCC/C=C/C(=O)[C@H]1C(=O)O[C@@]2(C)C(=O)C(C=O)=C3C=C(C)OC=C3[C@H]12`, which Activity (SU.86.86 [3]) is on record?
**A.** Active

**Q.** What about the Activity (SU.86.86 [1]) of the same compound?
**A.** >30%

**Q.** What about the Activity (SU.86.86 [4]) of the same compound?
**A.** Active

**Q.** Which results are given for `C/C=C(\C)[C@H]1[C@@H](/C=C/C=C(\C)[C@@H](O)[C@@H](C)CO)[C@@H]2C[C@@H](OC(=O)Cc3ccccc3)[C@](C)(O)C[C@H]2[C@@H]2O[C@@]21C`?
**A.** Activity (SU.86.86 [5]): Active; Activity (SU.86.86 [4]): Active; Activity (SU.86.86 [2]): >20%

**Q.** With `CC(C)=CCC/C(C)=C/CC/C(C)=C/CC/C(C)=C/CC/C(C)=C/CC/C(C)=C/Cc1cc(O)ccc1O` as the compound, how does the Activity (SU.86.86 [5]) read?
**A.** Active

**Q.** And the Activity (SU.86.86 [4])?
**A.** Active

**Q.** `COC(=O)C[C@@H]1Cc2cc3c(-c4c(OC)cc(O)c5c(O)c6c(cc45)C[C@@H](CC(=O)OC)OC6=O)c(OC)cc(O)c3c(O)c2C(=O)O1` was tested. Which Activity (SU.86.86 [3]) did it give?
**A.** Active

**Q.** And the Activity (SU.86.86 [5])?
**A.** Active

**Q.** And the Activity (SU.86.86 [4])?
**A.** Active

**Q.** What about the Activity (SU.86.86 [6]) of the same compound?
**A.** Active

**Q.** With `C/C=C1\NC(=O)[C@H](Cc2ccccc2)NC(=O)[C@@H](C(C)C)NC(=O)[C@H]([C@@H](C)CC)NC(=O)[C@H](NC(=O)[C@H](NC(=O)[C@H](CCCN)NC(=O)[C@H]2CCCN2C(=O)[C@H](NC(=O)[C@@H](NC(=O)[C@H](NC(=O)[C@H](NC(=O)CCCC(C)C)C(C)C)[C@@H](C)O)C(C)C)C(C)C)[C@@H](C)CC)C(C)OC(=O)[C@H](C(C)C)NC1=O` (stereo not given in full) as the compound, how does the Activity (SU.86.86 [7]) read?
**A.** >20%

**Q.** What does the source list for `CC1=CCC[C@H]2[C@](C)(CC3=CC(=O)C=CC3=O)[C@@H](C)CC[C@]12C` [AVARONE]?
**A.** Activity (SU.86.86 [7]): >20%; Activity (SU.86.86 [2]): >20%

**Q.** With `[O-][n+]1ccc2c([nH]c3ccccc32)c1C1=C[C@@]2(O)CC/C=C\CCCCN3CC[C@@H]1[C@]1(CC/C=C\CCCCN[C@H]12)C3` as the compound, how does the Activity (SU.86.86 [2]) read?
**A.** >20%

**Q.** `C=C[C@@](C)(/C=C/c1ccc(O)cc1)CCC=C(C)C` [BAKUCHIOL] was tested. Which Activity (SU.86.86 [2]) did it give?
**A.** >20%

**Q.** `Cc1cc(O)c2c(c1)C(=O)c1c(c(O)cc(O)c1-c1c(O)cc(O)c3c1C(=O)c1cc(C)cc(O)c1C3=O)C2=O` [SKYRIN] was tested. Which Activity (SU.86.86 [2]) did it give?
**A.** >20%

**Q.** Which Activity (SU.86.86 [2]) does the source give for `CN1C(=O)NC(CCCNC(=O)c2cc(Br)c(Br)n2C)C1=O` (stereo not given) [MIDPACAMIDE] here?
**A.** >20%

**Q.** How did the Activity (SU.86.86 [7]) turn out when `O=C1C[C@H](O)[C@H]2c3ccc(O)c4c3[C@H](c3ccc(O)c1c32)[C@@H](O)CC4=O` was run?
**A.** >20%

**Q.** With `O=C1C[C@@H](c2ccccc2)Oc2cc(O)cc(O)c21` [PINOCEMBRIN] as the compound, how does the Activity (SU.86.86 [1]) read?
**A.** >30%

**Q.** With `COC(=O)/C=C/Oc1ccc(OC)cc1` as the compound, how does the Activity (SU.86.86 [2]) read?
**A.** >20%

**Q.** What does the source list for `COC(=O)[C@@]12Oc3ccc(-c4ccc5c(c4O)C(=O)C4=C(O)C[C@H](C)[C@H](O)[C@]4(C(=O)OC)O5)c(O)c3C(=O)C1=C(O)C[C@H](C)[C@H]2O`?
**A.** Activity (SU.86.86 [3]): Active; Activity (SU.86.86 [5]): Active; Activity (BXPC-3): 2.5 µM; Activity (SU.86.86 [1]): >30%; Activity (SU.86.86 [7]): >20%; Activity (SU.86.86 [4]): Active; Activity (SU.86.86 [8]): 3 µM; Activity (SU.86.86 [2]): >20%

**Q.** How did the Activity (SU.86.86 [2]) turn out when `O=c1cc(CO)occ1O` [KOJIC ACID] was run?
**A.** >20%

**Q.** Which Activity (SU.86.86 [7]) does the source give for `C=C1CC[C@@H]2C(C)(C)CCC[C@@]2(C)[C@@H]1CC/C(C)=C/Cn1c[n+](C)c2ncnc(NO)c21` here?
**A.** >20%

**Q.** With `C=CC(C)(C)[C@@]12C[C@H]3C(=O)N/C(=C/c4c[nH]cn4)C(=O)N3[C@@H]1Nc1ccccc12` [ROQUEFORTINE C] as the compound, how does the Activity (SU.86.86 [2]) read?
**A.** >20%

**Q.** How did the Activity (SU.86.86 [1]) turn out when `CC[C@H](C)[C@H](NC(=O)[C@H](Cc1ccccc1)NC(=O)[C@H](CC(C)C)NC(=O)[C@@H]1CCCN1C(=O)/C1=C/N[C@@H](C(C)C)C(=O)N2CCC[C@H]2C(=O)N[C@@H](C(C)C)C(=O)N[C@@H](Cc2ccccc2)C(=O)N2CCC[C@H]2C(=O)N1)C(N)=O` was run?
**A.** >30%

**Q.** For `COC1=C(Br)[C@@H](O)[C@]2(C=C1Br)CC(C(=O)NC[C@@H](O)c1cc(Br)c(OC[C@@H](O)CNC(=O)C3=NO[C@]4(C=C(Br)C(OC)=C(Br)[C@@H]4O)C3)c(Br)c1)=NO2`, which Activity (SU.86.86 [2]) is on record?
**A.** >20%

**Q.** Which Activity (SU.86.86 [1]) does the source give for `C=C1[C@@H](C)[C@H]2[C@H](Cc3ccccc3)NC(=O)[C@]23[C@H](OC(C)=O)/C=C\[C@@H](C)C[C@@H](C)C/C=C\[C@H]3[C@@H]1O` here?
**A.** >=30%

**Q.** How did the Activity (SU.86.86 [2]) turn out when `COc1ccc(CC#N)c(O)c1` was run?
**A.** >20%

**Q.** Which results are given for `O=C1CCCN2[C@@H](CC1)C[C@]13CN4CCCC/C=C\CC[C@](O)(C=C(c5nccc6c5[nH]c5c(O)cccc56)[C@@H]1CC4)[C@H]23`?
**A.** Activity (SU.86.86 [7]): >20%; Activity (SU.86.86 [2]): >20%

**Q.** Which results are given for `CC(C)[C@@H]1OC(=O)[C@@H](Cc2ccc(O)cc2)N(C)C(=O)[C@H](C(C)C)OC(=O)[C@@H](Cc2ccccc2)N(C)C(=O)[C@H](C(C)C)OC(=O)[C@@H](Cc2ccccc2)N(C)C1=O`?
**A.** Activity (SU.86.86 [3]): Active; Activity (SU.86.86 [1]): >30%; Activity (SU.86.86 [4]): Active; Activity (SU.86.86 [9]): Active

**Q.** How did the Activity (SU.86.86 [1]) turn out when `C=C1CCC[C@H]2[C@](C)(CC3=C(O)C(=O)C=C(N[C@@H](CO)C(=O)O)C3=O)[C@@H](C)CC[C@]12C` was run?
**A.** >30%

**Q.** `CC(C)[C@H]1OC(=O)[C@H](Cc2ccccc2)N(C)C(=O)[C@@H](C(C)C)OC(=O)[C@H](Cc2ccccc2)N(C)C(=O)[C@@H](C(C)C)OC(=O)[C@H](Cc2ccccc2)N(C)C1=O` was tested. Which Activity (SU.86.86 [3]) did it give?
**A.** Active

**Q.** And the Activity (SU.86.86 [5])?
**A.** Active

**Q.** What about the Activity (SU.86.86 [4]) of the same compound?
**A.** Active

**Q.** With `CC(C)=CCC[C@@H](C)c1ccc(C)c(O)c1` [XANTHORRIZOL] as the compound, how does the Activity (SU.86.86 [2]) read?
**A.** >20%

— ChEMBL document CHEMBL4627257, “Targeting the DNA damage response (DDR) by natural compounds” (Bioorg Med Chem, 2020)
